In article PMC1525162 (BMC Pharmacology, 2006):
Entries after “also recorded” stand apart in the source; their conditions may differ. Blank lines part the entries; values can stand above or below the molecule they belong to. Bridge positions count the residues as written; N and C are the ends. Ends that are not written are not given here. Peptide text beside a SMILES is read from it.

How the values were obtained:
[1] = test system: endogenous CGRP receptor expressed on SK-N-MC human neuroblastoma cells; details: cited from earlier work
Text: (§1) Consequently, it is reasonable to assume that interactions of CGRP-F37 with the mature CLR-RAMP1 heterodimer would necessitate a more complex relationship in order to account for the high affinity binding associated with ...

[2] = test system: CGRP receptor; details: displaced by CGRP and CGRP(8–37); cited from earlier work
Text: as §1

[3] = molecular target: endogenous CGRP receptors expressed in the guinea pig atria; parameters: method as in Rovero et al., 1992; details: estimated from functional characterization, n = 3, ref Rovero et al., 1992, read-out: Reported Wild Type, equilibrium dissociation constant; cited from earlier work
[4] = test system: L24A, L34A and L24A,L34A CLR-RAMP1 heterodimers versus wild type; assay: Competition/saturation binding, leucine mutant CLRs compared with wild type; parameters: species or system human; details: for affinity at leucine mutants compared with wild type: L34A, L24A,L34A vs wild type CLR
Experimental: (§2) A crude cell membrane preparation was prepared as previously described. Briefly, HEK293T-RAMP1 membranes were prepared by scraping and transferring cells to a 50 mL conical tube using cold HBSS followed with two washings by centrifugation at 1000 × g using cold HBSS. The intact cell pellet was resuspended in 10 mL of 0.25 M sucrose containing a protease inhibitor cocktail consisting of 10μg/mL benzamidine, 10μg/mL leupeptin, and 20μg/mL phenylmethysulfonylfluoride. The cells were disrupted by freezing followed by Dounce homogenization of the thawed suspension using 20 strokes from a loose fitting (B) pestle. This mixture was then centrifuged at 1260 × g for 5 min at 4°C. Buffer A (20 mM HEPES, pH 7.5, 1.4 mM EGTA, 12.5 mM MgCl2, 10μg/mL benzamidine, 10μg/mL leupeptin, and 20μg/mL phenylmethysulfonylfluoride) was added to the supernatant and centrifuged again at 30,000 × g for 15 min at 4°C. The resultant pellet was kept, resuspended in buffer A then centrifuged once more at 30,000 × g for 15 min at 4°C. The final crude membrane pellet was resuspended in buffer A containing 10% glycerol and stored in aliquots at -70°C until used for radioligand binding. Protein concentrations were measured using the method of Bradford.
The radioligand binding protocol used for this study was performed as previously described. […] Binding was stopped by filtering the membranes though Whatman GF/C glass fiber filters, followed by 5 – 5 mL washes with cold buffer B (20 mM HEPES, pH 7.5, 1.4 mM EGTA, 12.5 mM MgCl2) to remove any unbound drug. Amounts of total and non-specific radiolabel bound to cell membranes were calculated from radioactive counts remaining on the glass fiber filters.

[5] = molecular target: T1, wild type CLR-RAMP1 heterodimer (HEK293T-RAMP1 membranes) (Homo sapiens, UniProt O60894+Q16602); assay: Competition radioligand binding, wild type CLR; details: compared to Ki of CGRP
Experimental: as §2, with “The final crude membrane pellet was resuspended in buffer A containing 10% glycerol and stored in aliquots at -70°C until used for radioligand binding.” left out
(§3) The radioligand binding protocol used for this study was performed as previously described. […] Amounts of total and non-specific radiolabel bound to cell membranes were calculated from radioactive counts remaining on the glass fiber filters.

[6] = test system: wild type and L24A, L34A, L24A,L34A CLR-RAMP1 (HEK293T-RAMP1 cells); assay: cAMP generation, wild type and leucine mutant CLRs compared; details: L24A, L34A, L24A,L34A vs wild type CLR
[7] = molecular target: wild type CLR-RAMP1 (transiently transfected HEK293T-RAMP1 cells) (Homo sapiens, UniProt O60894+Q16602); assay: cAMP generation, wild type CLR; assay type: cell-based
[8] = test system: endogenous CGRP receptors on acutely isolated pancreatic acinar cells; parameters: method as in PMID 7689110; details: cited from earlier work
[9] = molecular target: CLR-RAMP1 heterodimer with the L24A CLR mutant (UniProt Q16602); assay: radioligand binding; competition: increasing unlabeled peptide against specific [125I-Tyr]CGRP(8–37) binding on crude membranes of transiently transfected HEK293T-RAMP1 cells, same buffer as the saturation binding; Ki from IC50 by the method of Cheng and Prusoff
[10] = molecular target: CLR-RAMP1 heterodimer, wild type calcitonin-like receptor (CLR) with receptor-activity-modifying protein-1 (RAMP1) (UniProt Q16602); assay: as above
[11] = molecular target: CLR-RAMP1 heterodimer with the L34A CLR mutant (UniProt Q16602); assay: as above
[12] = molecular target: CLR-RAMP1 heterodimer with the L24A,L34A CLR double mutant (UniProt Q16602); assay: as above
[13] = molecular target: CGRP receptors endogenously expressed in rat brain and peripheral tissues; parameters: method as in Van Rossum et al., 1994; details: previously published equilibrium dissociation constant; ref Van Rossum et al., 1994; read-out: Reported Wild Type, Kd of radioligand; cited from earlier work
[14] = molecular target: T1, wild type CLR-RAMP1 heterodimer (HEK293T-RAMP1 membranes); assay: Saturation binding of [^125I-Tyr]CGRP(8–37), wild type CLR; details: per mg wild type membrane protein; mean ± S.E., n = 3 in duplicate
Experimental: as §2, with “The final crude membrane pellet was resuspended in buffer A containing 10% glycerol and stored in aliquots at -70°C until used for radioligand binding.” left out
as §3

[15] = test system: HEK293T-RAMP1 membranes without CLR; assay: Radioligand binding, non-transfected or empty-vector HEK293T-RAMP1 membranes; details: increasing radioligand concentrations, data not shown
Experimental: as §2, with “The final crude membrane pellet was resuspended in buffer A containing 10% glycerol and stored in aliquots at -70°C until used for radioligand binding.” left out
as §3

[16] = molecular target: T2, CLR-RAMP1 heterodimer with the L24A CLR mutant (human | , UniProt Q16602 23-461; O60894 27-148, L24A); assay: radioligand binding; competition: increasing unlabeled peptide against specific [125I-Tyr]CGRP(8–37) binding on crude membranes of transiently transfected HEK293T-RAMP1 cells, same buffer as the saturation binding; Ki from IC50 by the method of Cheng and Prusoff
[17] = molecular target: T3, CLR-RAMP1 heterodimer with the L24A,L34A CLR double mutant (human | , UniProt Q16602 23-461; O60894 27-148, L24A | L34A); assay: as above
[18] = molecular target: T4, CLR-RAMP1 heterodimer with the L34A CLR mutant (human | , UniProt Q16602 23-461; O60894 27-148, L34A); assay: as above
[19] = molecular target: T5, CLR-RAMP1 heterodimer, wild type calcitonin-like receptor (CLR) with receptor-activity-modifying protein-1 … (human | , UniProt Q16602 23-461; O60894 27-148); assay: as above
[20] = molecular target: T2, CLR-RAMP1 heterodimer with the L24A CLR …; assay: cell-based or functional assay
[21] = molecular target: T3, CLR-RAMP1 heterodimer with the …; assay: cell-based or functional assay
[22] = molecular target: T4, CLR-RAMP1 heterodimer with the L34A CLR …; assay: cell-based or functional assay
[23] = molecular target: T5, CLR-RAMP1 heterodimer, wild type …; assay: cell-based or functional assay

Molecule: NCCCC[C@H](NC(=O)[C@@H](Cc1cc(Br)c(O)c(Br)c1)NC(=O)N1CCC(N2Cc3ccccc3NC2=O)CC1)C(=O)N1CCN(c2ccncc2)CC1 [BIBN4096BS]
affinity for endogenous CGRP receptor [1]: high affinity
displacement in competition binding [2]: selectively be displaced in competition binding assays by CGRP and the receptor antagonist, CGRP(8–37)

Molecule: Ac-SGGVVKNNFVPTNVGSKAF-NH2 [AcCGRP(19–37)]
Kd [3]: 0.933 µM
affinity at leucine mutants compared with wild type [4]: significantly different (P < .05) from the wild type receptor

Molecule: AcCGRP(19–37) (peptide)
Ki [9]: 3 µM
Ki [10]: 0.227 µM
Ki [11]: 4.6 µM
Ki [12]: 2 µM

Further lines, with some results ahead:

affinity for wild type CLR compared with CGRP [5]: significant affinity loss
affinity at leucine mutants compared with wild type [4]: no differences
maximal cAMP response ([7]; CGRP(1–36) compared with CGRP, CGRP(1–19) compared with CGRP(1–36) and CGRP): maximal response was similar
fold loss of EC50 potency vs CGRP, wild type ([7]; cAMP EC50 of the fragment compared with CGRP): over 2,600 fold
cAMP potency compared with CGRP, wild type ([7]; compared to CGRP): significantly less
Molecule: CC(C)C[C@H](NC(=O)CNC(=O)[C@H](C)NC(=O)[C@H](CC(C)C)NC(=O)[C@H](CCCNC(=N)N)NC(=O)[C@H](Cc1c[nH]cn1)NC(=O)[C@@H](NC(=O)[C@@H](NC(=O)[C@@H]1CSSC[C@H](NC(=O)[C@H](C)N)C(=O)N[C@@H](CC(=O)O)C(=O)N[C@@H]([C@@H](C)O)C(=O)N[C@@H](C)C(=O)N[C@@H]([C@@H](C)O)C(=O)N1)C(C)C)[C@@H](C)O)C(=O)N[C@@H](CC(C)C)C(=O)N[C@@H](CO)C(=O)N[C@@H](CCCNC(=N)N)C(=O)N[C@@H](CO)C(=O)NCC(=O)NCC(=O)N[C@H](C(=O)N[C@H](C(=O)N[C@@H](CCCCN)C(=O)N[C@@H](CC(N)=O)C(=O)N[C@@H](CC(N)=O)C(=O)N[C@@H](Cc1ccccc1)C(=O)N[C@H](C(=O)N1CCC[C@H]1C(=O)N[C@H](C(=O)N[C@@H](CC(N)=O)C(=O)N[C@H](C(=O)NCC(=O)N[C@@H](CO)C(=O)N[C@@H](CCCCN)C(=O)N[C@@H](C)C(N)=O)C(C)C)[C@@H](C)O)C(C)C)C(C)C)C(C)C [CGRP(1–36)] (H-ACDTATCVTHRLAGLLSRSGGVVKNNFVPTNVGSKA-NH2; disulfide 2-7 (inferred); N-terminus assumed)
cAMP potency at leucine mutants compared with wild type [6]: no different; also recorded: no significant potency differences
amylase release [8]: increase amylase release

fold decrease in affinity, mutant receptors vs wild type ([4]; L34A and L24A,L34A compared to wild type CLR): ~10 fold
Bmax (maximal specific binding) [14]: 285 ± 206 fmols/mg
specific binding without CLR [15]: no specific binding
Molecule: CC(C)C[C@H](NC(=O)CNC(=O)[C@H](C)NC(=O)[C@H](CC(C)C)NC(=O)[C@H](CCCNC(=N)N)NC(=O)[C@H](Cc1c[nH]cn1)NC(=O)[C@@H](NC(=O)[C@@H](NC(=O)[C@@H](N)Cc1ccc(O)c(I)c1)C(C)C)[C@@H](C)O)C(=O)N[C@@H](CC(C)C)C(=O)N[C@@H](CO)C(=O)N[C@@H](CCCNC(=N)N)C(=O)N[C@@H](CO)C(=O)NCC(=O)NCC(=O)N[C@H](C(=O)N[C@H](C(=O)N[C@@H](CCCCN)C(=O)N[C@@H](CC(N)=O)C(=O)N[C@@H](CC(N)=O)C(=O)N[C@@H](Cc1ccccc1)C(=O)N[C@H](C(=O)N1CCC[C@H]1C(=O)N[C@H](C(=O)N[C@@H](CC(N)=O)C(=O)N[C@H](C(=O)NCC(=O)N[C@@H](CO)C(=O)N[C@@H](CCCCN)C(=O)N[C@@H](C)C(=O)N[C@@H](Cc1ccccc1)C(N)=O)C(C)C)[C@@H](C)O)C(C)C)C(C)C)C(C)C [[^125I-Tyr]CGRP(8–37)]
Kd [13]: 0.0002 µM

Ki [16]: > 10 µM
Ki [17]: > 10 µM
Ki [18]: > 10 µM
Ki [19]: > 10 µM
EC50 of cAMP generation in transiently transfected HEK293T-RAMP1 cells [20]: 3.4 µM
EC50 of cAMP generation in transiently transfected HEK293T-RAMP1 cells [21]: 4.2 µM
EC50 of cAMP generation in transiently transfected HEK293T-RAMP1 cells [22]: 5.6 µM
EC50 of cAMP generation in transiently transfected HEK293T-RAMP1 cells [23]: 4.3 µM
Molecule: ACDTATCVTHRLAGLLSRSGGVVKNNFVPTNVGSKA-NH2 (not fully specified (bridges); cysteine pairing not given here) [CGRP(1–36)]
